Assay results reported in ChEMBL document CHEMBL1147043, “Comparative metabolism of radiolabeled muraglitazar in animals and humans by quantitative and qualitative metabolite profiling” (Drug Metab Dispos, 2007).

Key:
[1] = Bile excretion of compound in bile duct-cannulated orally dosed Sprague-Dawley rat within 24 hrs; type: ADME, organism-based; conditions: po, read-out: Activity
[2] = Half life in Sprague-Dawley rat at 10 mg/kg, po after 24 hrs; type: ADME, organism-based; parameters: dose 10 mg/kg, route oral; conditions: in vivo
[3] = Tmax in cynomolgus monkey at 1.9 mg/kg, po after 24 hrs; type: ADME, organism-based, Macaca fascicularis; parameters: dose 1.9 mg/kg, route oral; conditions: in vivo
[4] = Biodistribution in orally dosed human feces assessed as O-dealkyl muraglitazar level by LC/MS analysis; type: ADME, organism-based; conditions: in vivo, po
[5] = Tmax in Sprague-Dawley rat at 10 mg/kg, po after 24 hrs; type: ADME, organism-based; parameters: dose 10 mg/kg, route oral; conditions: in vivo
[6] = Biodistribution in orally dosed cynomolgus monkey feces assessed as imide derivative of muraglitazar level by LC/MS analysis; type: ADME, organism-based, Macaca fascicularis; conditions: in vivo, po
Plasma [7] = assay: Biodistribution in orally dosed cynomolgus monkey plasma assessed as O-demethyl muraglitazar glucuronide level after 12 hrs by LC/MS analysis; type: ADME, organism-based, Macaca fascicularis; conditions: in vivo, po
[8] = Metabolic stability in cynomolgus monkey hepatocytes assessed as O-dealkyl-O-demethyl muraglitazar level by LC/MS analysis relative to control; type: ADME, cell-based, Macaca fascicularis, Hepatocyte
Rattus norvegicus [9] = assay: Biodistribution in orally dosed Sprague-Dawley rat feces assessed as O-dealkyl muraglitazar level by LC/MS analysis; type: ADME, organism-based; conditions: in vivo, po
[10] = Half life in cynomolgus monkey at 1.9 mg/kg, po after 24 hrs; type: ADME, organism-based, Macaca fascicularis; parameters: dose 1.9 mg/kg, route oral; conditions: in vivo
[11] = Biodistribution in orally dosed Beagle dog feces assessed as 17-hydroxy muraglitazar level by LC/MS analysis; type: ADME, organism-based, Canis lupus familiaris; conditions: in vivo, po
Plasma [12] = assay: Biodistribution in orally dosed cynomolgus monkey plasma assessed as 8-hydroxy-O-demethyl muraglitazar level after 4 hrs by LC/MS analysis; type: ADME, organism-based, Macaca fascicularis; conditions: in vivo, po
[13] = Drug concentration in bile duct-cannulated CD1 mouse feces assessed as recovery of radioactive dose at 40 mg/kg, po after 24 hrs; type: ADME, organism-based; parameters: dose 40 mg/kg, route oral; conditions: in vivo
Plasma [14] = assay: Biodistribution in orally dosed human plasma assessed as O-demethyl muraglitazar level after 12 hrs by LC/MS analysis; type: ADME, organism-based; conditions: in vivo, po
[15] = Metabolic stability in cynomolgus monkey hepatocytes assessed as hydroxyl-O-demethyl muraglitazar glucuronide level by LC/MS analysis relative to control; type: ADME, cell-based, Macaca fascicularis, Hepatocyte
[16] = Metabolic stability in CD1 mouse hepatocytes assessed as 17-hydroxy muraglitazar level by LC/MS analysis relative to control; type: ADME, cell-based, Hepatocyte
[17] = Metabolic stability in cynomolgus monkey hepatocytes assessed as 12-hydroxy-O-demethyl muraglitazar level by LC/MS analysis relative to control; type: ADME, cell-based, Macaca fascicularis, Hepatocyte
[18] = Drug concentration in human feces assessed as recovery of radioactive dose at 20 mg, po after 240 hrs; type: ADME, organism-based; conditions: in vivo
Hepatocyte [19] = assay: Metabolic stability in human hepatocytes assessed as 12-hydroxy-O-demethyl muraglitazar level by LC/MS analysis relative to control; type: ADME, cell-based
[20] = Drug concentration in bile duct-cannulated CD1 mouse bile at 1 mg/kg, po after 24 hrs; type: ADME, organism-based; parameters: dose 1 mg/kg, route oral; conditions: in vivo
Plasma [21] = assay: Biodistribution in orally dosed human plasma assessed as muraglitazar glucuronide level after 12 hrs by LC/MS analysis; type: ADME, organism-based; conditions: in vivo, po
Plasma [22] = assay: Biodistribution in orally dosed human plasma assessed as 12-dihydroxy muraglitazar level after 4 hrs by LC/MS analysis; type: ADME, organism-based; conditions: in vivo, po
[23] = Drug concentration in bile duct-cannulated cynomolgus monkey bile at 5 mg/kg, po after 48 hrs; type: ADME, organism-based, Macaca fascicularis; parameters: dose 5 mg/kg, route oral; conditions: in vivo
Plasma [24] = assay: Biodistribution in orally dosed cynomolgus monkey plasma assessed as O-demethyl muraglitazar glucuronide level after 4 hrs by LC/MS analysis; type: ADME, organism-based, Macaca fascicularis; conditions: in vivo, po
Plasma [25] = assay: Biodistribution in orally dosed Beagle dog plasma assessed as O-demethyl muraglitazar glucuronide level after 4 hrs by LC/MS analysis; type: ADME, organism-based, Canis lupus familiaris; conditions: in vivo, po
[26] = Metabolic stability in cynomolgus monkey hepatocytes assessed as 17-hydroxy muraglitazar level by LC/MS analysis relative to control; type: ADME, cell-based, Macaca fascicularis, Hepatocyte
Plasma [27] = assay: Biodistribution in orally dosed human plasma assessed as 12-dihydroxy muraglitazar level after 12 hrs by LC/MS analysis; type: ADME, organism-based; conditions: in vivo, po
[28] = Drug concentration in bile duct-cannulated CD1 mouse urine assessed as recovery of radioactive dose at 1 mg/kg, po after 24 hrs; type: ADME, organism-based; parameters: dose 1 mg/kg, route oral; conditions: in vivo
Hepatocyte [29] = assay: Metabolic stability in Sprague-Dawley rat hepatocytes assessed as 8-hydroxy muraglitazar level by LC/MS analysis relative to control; type: ADME, cell-based
Plasma [30] = assay: Biodistribution in orally dosed human plasma assessed as muraglitazar glucuronide level after 1 hr by LC/MS analysis; type: ADME, organism-based; conditions: in vivo, po
Plasma [31] = assay: Biodistribution in orally dosed Beagle dog plasma assessed as 12-hydroxy-O-demethyl muraglitazar level after 4 hrs by LC/MS analysis; type: ADME, organism-based, Canis lupus familiaris; conditions: in vivo, po
[32] = Drug concentration in Beagle dog urine at 2 mg/kg, po after 24 hrs; type: ADME, organism-based, Canis lupus familiaris; parameters: dose 2 mg/kg, route oral; conditions: read-out: Drug uptake
Rattus norvegicus [33] = assay: Biodistribution in orally dosed Sprague-Dawley rat urine assessed as 12-hydroxy muraglitazar level by LC/MS analysis; type: ADME, organism-based; conditions: in vivo, po
Plasma [34] = assay: Biodistribution in orally dosed cynomolgus monkey plasma assessed as muraglitazar 12-carboxylic acid level after 4 hrs by LC/MS analysis; type: ADME, organism-based, Macaca fascicularis; conditions: in vivo, po
[35] = Biodistribution in orally dosed human feces assessed as 9-hydroxy muraglitazar level by LC/MS analysis; type: ADME, organism-based; conditions: in vivo, po
Hepatocyte [36] = assay: Metabolic stability in Sprague-Dawley rat hepatocytes assessed as 12,17-dihydroxy muraglitazar level by LC/MS analysis relative to control; type: ADME, cell-based
Plasma [37] = assay: Biodistribution in orally dosed human plasma assessed as 17-dihydroxy muraglitazar level after 4 hrs by LC/MS analysis; type: ADME, organism-based; conditions: in vivo, po
[38] = Metabolic stability in CD1 mouse hepatocytes assessed as hydroxyl-O-demethyl muraglitazar glucuronide level by LC/MS analysis relative to control; type: ADME, cell-based, Hepatocyte
Hepatocyte [39] = assay: Metabolic stability in Sprague-Dawley rat hepatocytes assessed as 12-hydroxy muraglitazar level by LC/MS analysis relative to control; type: ADME, cell-based
[40] = Fecal excretion of compound in bile duct-cannulated orally dosed Sprague-Dawley rat within 24 hrs; type: ADME, organism-based; conditions: faeces, po, read-out: Activity
[41] = Biodistribution in orally dosed human feces assessed as 17-hydroxy-O-demethyl muraglitazar level by LC/MS analysis; type: ADME, organism-based; conditions: in vivo, po
[42] = Metabolic stability in cynomolgus monkey hepatocytes assessed as 12-hydroxy muraglitazar level by LC/MS analysis relative to control; type: ADME, cell-based, Macaca fascicularis, Hepatocyte
[43] = Biodistribution in orally dosed cynomolgus monkey urine assessed as 9-hydroxy muraglitazar level by LC/MS analysis; type: ADME, organism-based, Macaca fascicularis; conditions: in vivo, po
Rattus norvegicus [44] = assay: Biodistribution in orally dosed Sprague-Dawley rat urine assessed as O-dealkyl muraglitazar level by LC/MS analysis; type: ADME, organism-based; conditions: in vivo, po
[45] = Drug concentration in human bile assessed as recovery of radioactive dose at 20 mg, po after 3 to 8 hrs; type: ADME, organism-based; conditions: in vivo
[46] = Biodistribution in orally dosed cynomolgus monkey urine assessed as O-demethyl muraglitazar glucuronide level by LC/MS analysis; type: ADME, organism-based, Macaca fascicularis; conditions: in vivo, po
[47] = Biodistribution in orally dosed Beagle dog feces assessed as muraglitazar 12-carboxylic acid level by LC/MS analysis; type: ADME, organism-based, Canis lupus familiaris; conditions: in vivo, po
Plasma [48] = assay: Biodistribution in orally dosed cynomolgus monkey plasma assessed as O-demethyl muraglitazar level after 4 hrs by LC/MS analysis; type: ADME, organism-based, Macaca fascicularis; conditions: in vivo, po
Hepatocyte [49] = assay: Metabolic stability in human hepatocytes assessed as O-demethyl muraglitazar glucuronide level by LC/MS analysis relative to control; type: ADME, cell-based
[50] = Biodistribution in orally dosed Beagle dog feces assessed as 9,12-dihydroxy muraglitazar level by LC/MS analysis; type: ADME, organism-based, Canis lupus familiaris; conditions: in vivo, po
Canis familiaris = assay: AUC (0 to T) in Beagle dog at 2 mg/kg, po after 4 hrs; type: ADME, organism-based, Canis lupus familiaris, Plasma; parameters: time < 4 hr, dose 2 mg/kg, route oral; conditions: in vivo
[51] = Metabolic stability in CD1 mouse hepatocytes assessed as 9-hydroxy-O-demethyl muraglitazar level by LC/MS analysis relative to control; type: ADME, cell-based, Hepatocyte
Hepatocyte [52] = assay: Metabolic stability in human hepatocytes assessed as radioactivity recovaries at 25.6 ug/mL after 4 hrs; type: ADME, cell-based

Question: With `COc1ccc(OC(=O)N(CC(=O)O)Cc2ccc(OCCc3nc(-c4ccccc4)oc3C)cc2)cc1` [MURAGLITAZAR] as the compound, how does the dose excreted at 24 h [1] read?
Answer: The dose excreted at 24 h was 65%.

Question: What about the half-life [2] of the same compound?
Answer: Its half-life is 3.8 h.

Question: What about the Tmax [3] of the same compound?
Answer: The Tmax was 1 h.

Question: And the Drug uptake [4]?
Answer: Its Drug uptake is 0.8%.

Question: What about the Tmax [5] of the same compound?
Answer: Its Tmax is 0.5 h.

Question: And the Drug uptake [6]?
Answer: The Drug uptake was 0.56%.

Question: And the Drug uptake (Plasma [7])?
Answer: The Drug uptake was 0.4%.

Question: What about the Drug uptake [8] of the same compound?
Answer: Its Drug uptake is < 0.2%.

Question: And the Drug uptake (Rattus norvegicus [9])?
Answer: The Drug uptake was 1.75%.

Question: And the half-life [10]?
Answer: Its half-life is 23.5 h.

Question: What about the Drug uptake [11] of the same compound?
Answer: Its Drug uptake is 1.78%.

Question: And the Drug uptake (Plasma [12])?
Answer: The Drug uptake was 0.1%.

Question: What about the Drug uptake [13] of the same compound?
Answer: The Drug uptake was 12%.

Question: And the Drug uptake (Plasma [14])?
Answer: Its Drug uptake is 0.4%.

Question: And the Drug uptake [15]?
Answer: Its Drug uptake is < 0.2%.

Question: What about the Drug uptake [16] of the same compound?
Answer: The Drug uptake was 5.4%.

Question: And the Drug uptake [17]?
Answer: Its Drug uptake is < 0.2%.

Question: What about the Drug uptake [18] of the same compound?
Answer: Its Drug uptake is 50.7%.

Question: And the Drug uptake (Hepatocyte [19])?
Answer: Its Drug uptake is < 0.2%.

Question: What about the Drug uptake [20] of the same compound?
Answer: The Drug uptake was 0.375 mgequiv/ml.

Question: What about the Drug uptake (Plasma [21]) of the same compound?
Answer: The Drug uptake was 2.5%.

Question: What about the Drug uptake (Plasma [22]) of the same compound?
Answer: Its Drug uptake is 1%.

Question: What about the Drug uptake [23] of the same compound?
Answer: Its Drug uptake is 0.007 mgequiv/ml.

Question: What about the Drug uptake (Plasma [24]) of the same compound?
Answer: Its Drug uptake is 0.2%.

Question: What about the Drug uptake (Plasma [25]) of the same compound?
Answer: The Drug uptake was 3%.

Question: And the Drug uptake [26]?
Answer: The Drug uptake was 7.9%.

Question: And the Drug uptake (Plasma [27])?
Answer: Its Drug uptake is 1%.

Question: And the Drug uptake [28]?
Answer: Its Drug uptake is 8.3%.

Question: What about the Drug uptake (Hepatocyte [29]) of the same compound?
Answer: The Drug uptake was < 0.2%.

Question: And the Drug uptake (Plasma [30])?
Answer: Its Drug uptake is 2.5%.

Question: And the Drug uptake (Plasma [31])?
Answer: Its Drug uptake is 1%.

Question: What about the dose excreted at 24 h [32] of the same compound?
Answer: The dose excreted at 24 h was 0.49%.

Question: What about the Drug uptake (Rattus norvegicus [33]) of the same compound?
Answer: Its Drug uptake is 0.03%.

Question: And the Drug uptake (Plasma [34])?
Answer: The Drug uptake was < 0.05%.

Question: What about the Drug uptake [35] of the same compound?
Answer: The Drug uptake was 1.6%.

Question: And the Drug uptake (Hepatocyte [36])?
Answer: The Drug uptake was 0.3%.

Question: What about the Drug uptake (Plasma [37]) of the same compound?
Answer: Its Drug uptake is 0.3%.

Question: What about the Drug uptake [38] of the same compound?
Answer: The Drug uptake was < 0.2%.

Question: And the Drug uptake (Hepatocyte [39])?
Answer: Its Drug uptake is 1.3%.

Question: And the dose excreted at 24 h [40]?
Answer: The dose excreted at 24 h was < 1%.

Question: And the Drug uptake [41]?
Answer: The Drug uptake was 1.48%.

Question: And the Drug uptake [42]?
Answer: The Drug uptake was 0.8%.

Question: What about the Drug uptake [43] of the same compound?
Answer: Its Drug uptake is 0.03%.

Question: And the Drug uptake (Rattus norvegicus [44])?
Answer: The Drug uptake was 0.22%.

Question: And the Drug uptake [45]?
Answer: The Drug uptake was 39.9%.

Question: And the Drug uptake [46]?
Answer: The Drug uptake was < 0.01%.

Question: What about the Drug uptake [47] of the same compound?
Answer: The Drug uptake was 0.1%.

Question: What about the Drug uptake (Plasma [48]) of the same compound?
Answer: The Drug uptake was 0.3%.

Question: And the Drug uptake (Hepatocyte [49])?
Answer: The Drug uptake was < 0.2%.

Question: What about the Drug uptake [50] of the same compound?
Answer: Its Drug uptake is 0.34%.

Question: And the AUC (Canis familiaris)?
Answer: Its AUC is 1.1 ugequiv.h/ml.

Question: And the Drug uptake [51]?
Answer: Its Drug uptake is 1.2%.

Question: And the Stability (Hepatocyte [52])?
Answer: The Stability was 98.7%.
